The structures appear in SMILES notation. In brackets after ≈: the same amount, converted by molar mass.

In PMC3375340 (Journal of Medicinal Chemistry, 2012) one finds MIC data, which are given here for 1 molecule.

Test [1] has as its system M. tuberculosis H37Rv INHr. The experiment in a line: microbe, parasite or virus in culture. The test is classed as cell-based. The conditions noted are these: Mycobacterium tuberculosis.
The subject of test [2] is M. tuberculosis H37Rv RFPr. Briefly: microbe, parasite or virus in culture. The conditions noted are these: Mycobacterium tuberculosis. The format is cell-based.

In the case of `CCCCCC[C@H](CN1CCC(COc2cccc(C(=NOC)c3ccc(Cl)cc3)c2)CC1)OC(N)=O` [(R)-13, (R)-1-(4-((3-((4-Chlorophenyl)(methoxyimino)methyl)phenoxy)methyl)piperidin-1-yl)octan-2-yl carbamate], the MIC in test [1] amounted to 1.52 µg/mL (≈ 2.87 µM); in test [2] it was 1.51 µg/mL (≈ 2.85 µM).
